Experimental data published in US8252273B2, “Ultraviolet absorber” (Lead Chemical Co., Ltd., priority 2007, dated 2012).

Key:
[1] = Test Example 2: solubility test in organic solvents; format: physicochemical; details: for Amount of solvent required to dissolve 100 mg of sample / Concentration on dissolving 100 mg of sample: room temperature (23 to 25° C.)
Method: Sample a: the O-tolyl-4-methoxycinnamate compound synthesized in Example 1
Sample b: the Compound of Reference Example 2
The amounts of various organic solvents capable of dissolving 100 mg of each sample at room temperature (23 to 25° C.) were measured. For dissolving the sample, a 50 mL polypropylene conical tube (manufactured by CORNING Inc.) was used, and dissolution was carried out by stirring with a shaker (trade name: Vortex G-56; manufactured by Scientific Ind. Inc.) for 1 minute.

[2] = Test Example 3: ultraviolet irradiation test (absorption spectra for different irradiation times); format: physicochemical; details: conclusion for the compounds
Text: Ointments (samples B, C, D and E) prepared in Test Example 1 were interposed between two pieces of synthetic quartz plates to prepare measurement samples.
From a light radiated from a 500 W ultra-high pressure mercury vapor lamp (trade name: USH-500D; manufactured by Ushio Inc.), the visible light was removed through a water filter of 5 cm and an ultraviolet transmitting and visible light-absorbing filter (trade name: UV-D33S; manufactured by AGC Techno Glass Co., Ltd.). Then, each measurement sample was irradiated with ultraviolet rays mostly in the UVA and the UVB ranges. Ultraviolet rays irradiation time was set at 0, 5, 10, 15, 20, 25 and 30 minutes. The results of the test are shown in the ultraviolet absorption spectra of FIG. 4 to FIG. 7.

COc1ccc(/C=C/C(=O)Oc2ccccc2C)cc1 [Example 1, O-tolyl-4-methoxycinnamate]
Amount of solvent required to dissolve 100 mg of sample ([1]; Acetone): < 1 mL | Concentration on dissolving 100 mg of sample ([1]; Acetone): (>10) | Amount of solvent required to dissolve 100 mg of sample ([1]; Ethanol): 10 mL | Concentration on dissolving 100 mg of sample ([1]; Ethanol): (1) | Amount of solvent required to dissolve 100 mg of sample ([1]; Ether): 3 mL | Concentration on dissolving 100 mg of sample ([1]; Ether): (3.3) | Amount of solvent required to dissolve 100 mg of sample ([1]; Ethyl acetate): < 1 mL | Concentration on dissolving 100 mg of sample ([1]; Ethyl acetate): (>10) | Amount of solvent required to dissolve 100 mg of sample ([1]; Isopropyl alcohol): 15 mL | Concentration on dissolving 100 mg of sample ([1]; Isopropyl alcohol): (0.67) | Amount of solvent required to dissolve 100 mg of sample ([1]; Methanol): 7.5 mL | Concentration on dissolving 100 mg of sample ([1]; Methanol): (1.3) | Amount of solvent required to dissolve 100 mg of sample ([1]; N-methylpyrrolidone): < 1 mL | Concentration on dissolving 100 mg of sample ([1]; N-methylpyrrolidone): (>10) | Solubility in organic solvents compared with Reference Example 2 ([1]; almost all the organic solvents tested): better solubility than that of the compound of Reference Example 2 | Ultraviolet absorptive capacity (absorption strength) under ultraviolet irradiation in the UVA and the UVB ranges [2]: increases further | melting point: 93 to 94 °C

CCOc1ccc(/C=C/C(=O)Oc2ccccc2C)cc1 [Example 2, O-tolyl-4-ethoxycinnamate]
Ultraviolet absorptive capacity (absorption strength) under ultraviolet irradiation in the UVA and the UVB ranges [2]: increases further | melting point: 108 to 109 °C

CCCCC(CC)COC(=O)C=Cc1ccc(OC)cc1 (stereo not drawn) [Reference Example 1, 4-methoxycinnamic acid-2-ethylhexyl, reference compound]
Ultraviolet absorptive capacity (absorption strength) under ultraviolet irradiation in the UVA and the UVB ranges [2]: decreases or remains the same

COc1ccc(C(=O)CC(=O)c2ccc(C(C)(C)C)cc2)cc1 [Reference Example 2, 4-tert-butyl-4′-methoxy-dibenzoylmethane, reference compound]
Ultraviolet absorptive capacity (absorption strength) under ultraviolet irradiation in the UVA and the UVB ranges [2]: decreases or remains the same
